T1: human soluble interleukin 6 receptor α-chain (hsIL6Rα) and hsgp130 (Homo sapiens, UniProt P08887)
T1 construct: human soluble interleukin 6 receptor α-chain (hsIL6Rα)
T1 sequence (P08887 20-355 limits assumed): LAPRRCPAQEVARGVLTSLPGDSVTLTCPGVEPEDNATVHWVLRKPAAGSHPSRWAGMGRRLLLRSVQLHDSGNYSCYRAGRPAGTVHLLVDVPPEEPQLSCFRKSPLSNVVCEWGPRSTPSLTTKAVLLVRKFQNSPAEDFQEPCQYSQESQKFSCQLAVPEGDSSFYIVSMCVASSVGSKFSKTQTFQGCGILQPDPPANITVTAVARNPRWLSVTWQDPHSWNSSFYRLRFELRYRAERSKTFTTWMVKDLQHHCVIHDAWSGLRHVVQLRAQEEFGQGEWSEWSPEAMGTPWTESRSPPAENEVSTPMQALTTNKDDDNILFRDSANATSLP

T2: IL-6R (Homo sapiens, UniProt P08887)
T2 construct: endogenous in cells; host or cells: human myeloma U266 cells
T2 sequence (P08887 20-468): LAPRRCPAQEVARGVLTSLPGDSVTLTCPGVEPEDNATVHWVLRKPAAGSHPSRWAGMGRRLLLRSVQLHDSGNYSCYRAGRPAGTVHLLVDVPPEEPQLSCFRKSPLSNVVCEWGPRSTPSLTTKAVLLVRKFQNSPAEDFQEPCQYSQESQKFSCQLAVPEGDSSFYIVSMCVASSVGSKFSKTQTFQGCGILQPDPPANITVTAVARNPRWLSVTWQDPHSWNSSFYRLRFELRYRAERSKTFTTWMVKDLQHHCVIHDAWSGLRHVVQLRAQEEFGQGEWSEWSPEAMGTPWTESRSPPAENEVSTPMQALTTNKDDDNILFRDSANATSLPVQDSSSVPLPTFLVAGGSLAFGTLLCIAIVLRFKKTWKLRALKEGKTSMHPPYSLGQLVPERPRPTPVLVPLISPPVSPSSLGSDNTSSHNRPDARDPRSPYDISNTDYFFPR

T3: gp130 (Homo sapiens, UniProt P40189)
T3 sequence (P40189 23-918): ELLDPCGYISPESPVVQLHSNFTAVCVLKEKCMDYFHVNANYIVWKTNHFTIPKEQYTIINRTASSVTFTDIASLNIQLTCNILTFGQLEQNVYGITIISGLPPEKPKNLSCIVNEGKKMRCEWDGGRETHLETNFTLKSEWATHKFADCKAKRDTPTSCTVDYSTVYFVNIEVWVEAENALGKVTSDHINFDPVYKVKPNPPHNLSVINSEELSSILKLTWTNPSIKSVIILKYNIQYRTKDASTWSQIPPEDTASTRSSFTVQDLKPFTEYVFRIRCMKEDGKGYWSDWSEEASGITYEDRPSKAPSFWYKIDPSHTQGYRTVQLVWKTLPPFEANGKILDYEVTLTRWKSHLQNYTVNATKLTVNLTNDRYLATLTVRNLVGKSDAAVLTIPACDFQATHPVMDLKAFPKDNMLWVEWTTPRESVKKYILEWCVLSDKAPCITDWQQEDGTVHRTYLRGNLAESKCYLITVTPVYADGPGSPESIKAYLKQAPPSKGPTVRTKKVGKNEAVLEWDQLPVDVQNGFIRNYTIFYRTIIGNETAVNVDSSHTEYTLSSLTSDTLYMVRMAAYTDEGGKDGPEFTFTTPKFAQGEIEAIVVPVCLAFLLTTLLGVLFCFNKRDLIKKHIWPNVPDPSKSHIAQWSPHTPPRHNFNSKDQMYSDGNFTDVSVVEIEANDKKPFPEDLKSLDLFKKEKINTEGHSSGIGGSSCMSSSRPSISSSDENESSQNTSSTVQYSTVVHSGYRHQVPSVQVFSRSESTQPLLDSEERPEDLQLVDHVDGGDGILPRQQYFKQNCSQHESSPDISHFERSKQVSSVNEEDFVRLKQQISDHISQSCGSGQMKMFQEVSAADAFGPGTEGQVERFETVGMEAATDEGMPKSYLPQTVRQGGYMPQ


How the values were obtained:
[1] = target: T1, human soluble interleukin 6 receptor α-chain (hsIL6Rα) and hsgp130; experiment: High capacity screening assay: binding of europium-labelled human IL6 to hsIL6Rα and immobilised hsgp130; conditions: Eu-IL-6 binding by time resolved fluorescence as % of control, FIG. 7A
Excerpt: Compounds designed according to the methods of the present invention may be assessed by a number of in vitro and in vivo assays of hormone function. For example, the identification of IL-6 receptor antagonists of may be undertaken using a solid-phase receptor binding assay. Potential antagonists may be screened for their ability to inhibit the binding of europium-labelled IL-6 receptor ligands to soluble, recombinant IL-6 receptor in a microplate-based format. Europium is a lanthanide fluorophore, the presence of which can be measured using time-resolved fluorometry. The sensitivity of this assay matches that achieved by radioisotopes, measurement is rapid and is performed in a microplate format to allow high-sample throughput, and the approach is gaining wide acceptance as the method of choice in the development of screens for receptor agonists/antagonists (see Apell et al., J. Biomolec. Screening 3:19-27, 1998: Inglese et al., Biochemistry 37:2372-2377, 1998).
(§1) Solid phase receptor binding assays. Ten compounds selected from Table 3 (NCI compounds) were tested for their ability to modulate the binding of europium-labelled IL-6 to soluble, recombinant IL-6 receptor (A) or the binding of europium-labelled IGF-1 to soluble, recombinant IGF-1 receptor (B) in a microplate-based format. Binding to the receptor is measured by time resolved fluorescence (TRF) as a % of control.
Ten of the compounds listed in Table 3 were tested for their ability to modulate binding of IL-6 to IL-6R/gp130. The high throughput screening assay used for this purpose detects the binding of europium-labelled human IL6 (Eu-hIL6) to human soluble interleukin 6 receptor α-chain (hsIL6Rα) and hsgp130 immobilised on the surface of wells of a microtitre plate. The protocol followed was essentially as follows: […]
The fractions were assayed for europium by diluting 10,000-fold in 200 μL of DELFIA enhancement solution and measuring europium fluorescence. […] The concentration of Eu-IL6 was determined from the absorbance at 280 nm (0.5 AU/mg/mL) and the labelling stoichiometry based on a molecular mass of 21,300. […]

[2] = target: T4, soluble, recombinant IGF-1 receptor (Homo sapiens, UniProt P08069); experiment: Solid phase receptor binding assay, IGF-1R/IGF-1 system (specificity); conditions: Eu-IGF-1 binding to IGF-1 receptor, FIG. 7B
T4 construct: soluble, recombinant IGF-1 receptor
Protocol: as §1
In order to examine specificity, the compounds were also assayed against the IGF receptor system in an identical manner.

IL-6R = target: T2, IL-6R; conditions: human myeloma U266 cells, low-affinity binding; cited from earlier work
gp130 [3] = target: T3, gp130; parameters: endogenous in cells; host or cells: human myeloma U266 cells; conditions: human myeloma U266 cells, high-affinity binding; read-out: affinity of IL-6/IL-6R complex for gp130; cited from earlier work
gp130 [4] = target: T3, gp130; conditions: IL-6R N-D mutant; cited from earlier work
IL-6 = IL-6 binding of IL-6R mutant, relative to wild type; cited from earlier work

T4 sequence (P08069 31-736): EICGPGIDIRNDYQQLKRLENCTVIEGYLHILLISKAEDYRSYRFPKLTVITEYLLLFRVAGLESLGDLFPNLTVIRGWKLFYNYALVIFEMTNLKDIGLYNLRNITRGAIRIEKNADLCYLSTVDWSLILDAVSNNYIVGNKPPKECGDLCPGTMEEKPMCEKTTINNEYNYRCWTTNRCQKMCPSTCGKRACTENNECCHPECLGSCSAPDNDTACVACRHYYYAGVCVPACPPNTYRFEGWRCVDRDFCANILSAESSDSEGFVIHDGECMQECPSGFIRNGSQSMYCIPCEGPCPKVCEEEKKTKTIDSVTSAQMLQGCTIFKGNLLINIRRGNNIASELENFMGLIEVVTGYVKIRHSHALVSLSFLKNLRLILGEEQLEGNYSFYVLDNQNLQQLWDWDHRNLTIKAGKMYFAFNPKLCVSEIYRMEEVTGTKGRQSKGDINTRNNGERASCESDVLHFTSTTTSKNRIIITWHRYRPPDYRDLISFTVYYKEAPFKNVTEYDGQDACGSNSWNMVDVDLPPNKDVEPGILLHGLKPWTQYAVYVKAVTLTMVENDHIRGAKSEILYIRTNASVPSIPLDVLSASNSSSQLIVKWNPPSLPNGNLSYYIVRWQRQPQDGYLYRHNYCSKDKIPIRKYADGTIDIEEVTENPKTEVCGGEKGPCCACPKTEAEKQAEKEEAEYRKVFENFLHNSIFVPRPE
T4 sequence (P08069 741-935): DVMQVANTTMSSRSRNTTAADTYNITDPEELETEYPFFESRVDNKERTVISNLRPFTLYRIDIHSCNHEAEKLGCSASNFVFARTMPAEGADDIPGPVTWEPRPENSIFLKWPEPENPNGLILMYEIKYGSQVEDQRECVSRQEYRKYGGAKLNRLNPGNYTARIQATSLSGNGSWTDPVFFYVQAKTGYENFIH

| Molecule | effect on IL-6 binding to IL-6R/gp130 (antagonist or agonist) [1] | specificity against the IGF-1R/IGF-1 system [2] | further results |
| --- | --- | --- | --- |
| O=C(C[n+]1ccc2ccccc2c1)c1ccc(-c2ccccc2)cc1 [compound 17791, 1-[1,1′-biphenyl]-4-yl-2-(2^5-isoquinolin-2-yl)ethanone] | agonists | specifically | – |
| Nc1c(C(=O)Nc2ccc3c(c2)C(=O)c2ccccc2C3=O)ccc2c1C(=O)c1ccccc1C2=O [compound 39914, 1-amino-N-(9,10-dioxo-9,10-dihydro-2-anthracenyl)-9,10-dioxo-9,10-dihydro-2-anthracenecarboxamide] | antagonist | specifically | – |
| IL-6: multifunctional cytokine, natural ligand of the IL-6 receptor | – | – | Kd (IL-6R): ~1 nM |
| O=C(O)c1ccccc1C(=O)Nc1cc2c(cc1Br)-c1ccccc1C2=O [compound 56681, 2-(((3-bromo-9-oxo-9H-fluoren-2-yl)amino)carbonyl)benzoic acid] | agonists | specifically | – |
| IL-6/IL-6R complex: complex of IL-6 with the ligand binding α-chain receptor IL-6R | – | – | Kd (gp130 [3]): ~0.01 nM |
| N211: IL-6R N-D mutant at N211 (protein, UniProt P08887 20-468, looked up, variant N211D) Interleukin-6 receptor …: LAPRRCPAQEVARGVLTSLPGDSVTLTCPGVEPEDNATVHWVLRKPAAGSHPSRWAGMGRRLLLRSVQLHDSGNYSCYRAGRPAGTVHLLVDVPPEEPQLSCFRKSPLSNVVCEWGPRSTPSLTTKAVLLVRKFQNSPAEDFQEPCQYSQESQKFSCQLAVPEGDSSFYIVSMCVASSVGSKFSKTQTFQGCGILQPDPPANITVTAVARDPRWLSVTWQDPHSWNSSFYRLRFELRYRAERSKTFTTWMVKDLQHHCVIHDAWSGLRHVVQLRAQEEFGQGEWSEWSPEAMGTPWTESRSPPAENEVSTPMQALTTNKDDDNILFRDSANATSLPVQDSSSVPLPTFLVAGGSLAFGTLLCIAIVLRFKKTWKLRALKEGKTSMHPPYSLGQLVPERPRPTPVLVPLISPPVSPSSLGSDNTSSHNRPDARDPRSPYDISNTDYFFPR | – | – | binding to gp130 (gp130 [4]): N-D mutant, <10% binding to gp130; Binding (IL-6): 75% |

— US20070032640A1, “Cytokine receptor” (priority 2001, published 2007)
